What all share (assay type): biochemical
Experiment [1] addresses T1, α-N-Acetylgalactosaminidase (Chicken liver) (Gallus gallus, UniProt Q90744).
T1 construct: purchased Sigma-Aldrich Chemical Co; host or cells: chicken liver
T1 sequence (Q90744 1-405): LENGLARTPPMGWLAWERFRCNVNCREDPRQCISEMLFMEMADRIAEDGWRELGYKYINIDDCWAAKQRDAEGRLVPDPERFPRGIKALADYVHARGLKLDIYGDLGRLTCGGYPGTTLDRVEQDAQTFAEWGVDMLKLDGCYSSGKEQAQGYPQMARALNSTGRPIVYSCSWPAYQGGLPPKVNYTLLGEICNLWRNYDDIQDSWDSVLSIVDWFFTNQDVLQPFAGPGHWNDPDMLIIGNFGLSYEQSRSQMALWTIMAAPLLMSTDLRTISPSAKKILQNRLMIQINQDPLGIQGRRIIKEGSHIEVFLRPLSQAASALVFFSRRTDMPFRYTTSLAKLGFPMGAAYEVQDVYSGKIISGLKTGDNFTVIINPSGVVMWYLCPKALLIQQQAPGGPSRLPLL
Briefly: α-N-Acetylgalactosaminidase (chicken liver) inhibition. Here is the method:
(§1) With rat intestinal maltase as an exception, other enzymes were purchased from Sigma-Aldrich Chemical Co. (St. Louis, MO, USA). Brush border membranes prepared from rat small intestine according to the method of Kessler et al. were assayed at pH 6.8 for rat intestinal maltase using maltose. The released D-glucose was determined colorimetrically using the Glucose CII-test Wako (Wako Pure Chemical Ind.; Osaka, Japan). Other glycosidase activities were determined using an appropriate p-nitrophenyl glycoside as substrate in a buffer solution at the optimal pH value of each enzyme. The reaction was stopped by adding 400 mM Na2CO3. The released p-nitrophenol was measured spectrometrically at 400 nm.

The target in experiment [2] is β-N-Acetylgalactosaminidase (HL60). The experiment in a line: β-N-Acetylgalactosaminidase (HL60) inhibition. As to the method:
as §1

Experiment [3] addresses β-N-Acetylhexosaminidase (HL60). The experiment in a line: β-N-Acetylhexosaminidase (HL60) inhibition. As to conditions: for IC50: β-N-Acetylhexosaminidase (β-GlcNAcase); for Inhibition % at 1000 μM: β-N-Acetylhexosaminidase. Here is the method:
as §1

The target of experiment [4] is T2, β-Glucuronidase (Bovine liver) (Bos taurus, UniProt A3KMY8).
T2 construct: purchased Sigma-Aldrich Chemical Co; host or cells: bovine liver
T2 sequence (A3KMY8 1-652): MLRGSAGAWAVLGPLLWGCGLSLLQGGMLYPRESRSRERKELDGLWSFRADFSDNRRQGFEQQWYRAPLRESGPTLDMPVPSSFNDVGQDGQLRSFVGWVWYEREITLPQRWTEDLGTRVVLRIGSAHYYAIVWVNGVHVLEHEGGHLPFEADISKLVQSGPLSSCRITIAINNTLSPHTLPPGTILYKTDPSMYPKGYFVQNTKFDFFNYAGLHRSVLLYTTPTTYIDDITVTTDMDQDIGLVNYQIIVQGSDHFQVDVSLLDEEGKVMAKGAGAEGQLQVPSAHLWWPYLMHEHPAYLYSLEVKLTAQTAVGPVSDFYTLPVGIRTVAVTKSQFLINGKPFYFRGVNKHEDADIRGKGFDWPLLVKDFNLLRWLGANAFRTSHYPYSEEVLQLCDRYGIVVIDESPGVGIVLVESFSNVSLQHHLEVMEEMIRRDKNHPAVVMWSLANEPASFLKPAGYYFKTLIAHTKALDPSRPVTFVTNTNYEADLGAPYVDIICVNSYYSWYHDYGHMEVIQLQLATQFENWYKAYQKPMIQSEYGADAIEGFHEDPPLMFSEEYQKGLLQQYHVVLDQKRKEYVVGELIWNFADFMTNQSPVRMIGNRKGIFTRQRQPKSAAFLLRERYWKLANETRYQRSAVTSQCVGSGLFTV
Briefly: β-Glucuronidase (bovine liver) inhibition. Here is the method: as §1

For the next experiment, the target named is β-Glucosidase (Almond). Briefly: β-Glucosidase (almond) inhibition. Here is the method:
as §1

Experiment [5] addresses T3, α-Galactosidase (Coffee beans) (Coffea arabica, UniProt Q42656).
T3 construct: purchased Sigma-Aldrich Chemical Co
Briefly: α-Galactosidase (coffee beans) inhibition. As to the method:
as §1

The target of experiment [6] is β-N-Acetylhexosaminidase (Jack bean). Briefly: β-N-Acetylhexosaminidase (Jack bean) inhibition. The following applies: β-N-Acetylhexosaminidase (β-GlcNAcase), read-out: IC50. As to the method:
as §1

Another experiment addresses Rat intestinal maltase. Briefly: Rat intestinal maltase inhibition. The following applies: α-Glucosidase. Here is the method: as §1
The target in a further experiment is T4, α-Glucosidase (Rice) (Oryza sativa subsp. japonica, UniProt Q653V7).
T4 construct: purchased Sigma-Aldrich Chemical Co
T4 sequence (Q653V7 34-885): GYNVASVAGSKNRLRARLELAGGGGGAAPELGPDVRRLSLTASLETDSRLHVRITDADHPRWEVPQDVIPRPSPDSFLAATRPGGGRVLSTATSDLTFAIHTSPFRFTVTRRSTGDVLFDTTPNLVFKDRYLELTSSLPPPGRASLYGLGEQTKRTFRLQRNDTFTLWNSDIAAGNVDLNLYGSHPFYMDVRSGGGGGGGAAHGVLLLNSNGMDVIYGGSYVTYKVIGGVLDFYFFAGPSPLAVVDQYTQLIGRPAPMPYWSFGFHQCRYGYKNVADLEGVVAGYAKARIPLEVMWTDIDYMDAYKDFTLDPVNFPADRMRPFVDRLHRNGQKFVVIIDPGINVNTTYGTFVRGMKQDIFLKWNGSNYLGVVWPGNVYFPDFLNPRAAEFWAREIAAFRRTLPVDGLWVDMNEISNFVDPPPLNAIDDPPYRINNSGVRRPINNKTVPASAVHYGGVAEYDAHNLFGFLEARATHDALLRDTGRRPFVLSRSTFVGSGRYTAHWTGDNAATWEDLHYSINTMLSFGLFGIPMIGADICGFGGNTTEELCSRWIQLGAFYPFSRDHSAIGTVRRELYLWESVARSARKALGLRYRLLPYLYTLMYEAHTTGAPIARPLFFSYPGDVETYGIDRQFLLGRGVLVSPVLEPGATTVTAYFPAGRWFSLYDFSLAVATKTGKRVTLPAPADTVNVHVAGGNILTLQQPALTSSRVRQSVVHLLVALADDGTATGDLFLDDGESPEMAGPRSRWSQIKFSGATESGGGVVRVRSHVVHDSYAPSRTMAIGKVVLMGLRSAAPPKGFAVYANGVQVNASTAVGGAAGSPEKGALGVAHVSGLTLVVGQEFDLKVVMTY
Briefly: α-Glucosidase (rice) inhibition. Here is the method:
as §1

The target of the next experiment is β-Mannosidase (Snail). The experiment in a line: β-Mannosidase (snail) inhibition. Here is the method:
as §1

The target of experiment [7] is T5, α,α-Trehalase (Porcine kidney) (Sus scrofa, UniProt I3LIR5).
T5 construct: purchased Sigma-Aldrich Chemical Co; host or cells: porcine kidney
T5 sequence (I3LIR5 24-583): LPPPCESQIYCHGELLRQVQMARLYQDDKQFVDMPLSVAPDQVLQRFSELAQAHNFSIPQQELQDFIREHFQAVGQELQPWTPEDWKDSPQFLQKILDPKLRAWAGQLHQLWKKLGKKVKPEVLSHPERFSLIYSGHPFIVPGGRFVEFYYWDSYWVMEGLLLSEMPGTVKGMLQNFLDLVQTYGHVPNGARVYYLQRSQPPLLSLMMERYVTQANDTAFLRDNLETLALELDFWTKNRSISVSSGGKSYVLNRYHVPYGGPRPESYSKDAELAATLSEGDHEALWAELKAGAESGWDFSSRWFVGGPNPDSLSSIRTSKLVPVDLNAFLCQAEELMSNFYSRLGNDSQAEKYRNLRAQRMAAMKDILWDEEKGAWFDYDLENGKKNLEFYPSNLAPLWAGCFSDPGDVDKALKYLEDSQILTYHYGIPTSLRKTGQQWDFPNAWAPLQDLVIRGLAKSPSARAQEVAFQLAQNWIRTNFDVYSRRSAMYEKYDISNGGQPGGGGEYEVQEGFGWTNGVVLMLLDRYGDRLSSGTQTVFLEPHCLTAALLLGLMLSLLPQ
Briefly: α,α-Trehalase (porcine kidney) inhibition. Here is the method:
as §1

Setting [8] is: 1000 μM, read-out: Inhibition % at 1000 μM.

Counter-ions that a name gives are not always drawn. Like-named read-outs stand apart in the source and are kept apart here.

The term IC50 denotes the concentration at which inhibition is half-maximal.

T3 sequence (Q42656 16-378): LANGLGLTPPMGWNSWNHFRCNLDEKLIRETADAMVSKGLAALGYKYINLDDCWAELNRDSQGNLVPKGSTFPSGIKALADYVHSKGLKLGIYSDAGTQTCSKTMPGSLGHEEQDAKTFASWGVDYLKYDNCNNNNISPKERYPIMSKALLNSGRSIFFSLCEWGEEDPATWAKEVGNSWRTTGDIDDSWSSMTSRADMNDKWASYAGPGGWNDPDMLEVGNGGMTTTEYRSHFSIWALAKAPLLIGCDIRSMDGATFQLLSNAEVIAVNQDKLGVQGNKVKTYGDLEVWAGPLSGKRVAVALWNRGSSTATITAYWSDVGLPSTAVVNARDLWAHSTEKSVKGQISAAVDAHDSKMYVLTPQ

Consider `CC(=O)NC[C@@H]1N[C@H](CO)[C@@H](O)[C@H]1O` [H-10, 1-N-acetylamino-2,5-imino-1,2,5-trideoxy-L-allitol hydrochloride], for which the inhibition at 1000 µM in [1] (setting [8]) was 6.1%; in experiment [1] (read-out: IC50), less than 50%; in [4] (setting [8]) it was 0%; in experiment [4] (read-out: IC50) it was less than 50%; in experiment [5] (setting [8]) it was 0%; in [5] (read-out: IC50) it was less than 50%. In addition, the inhibition at 1000 µM at α-Glucosidase (Rice) (setting [8]) was 5.6%; on α-Glucosidase (Rice) (read-out: IC50), less than 50%; in experiment [7] (setting [8]) it was 40.9%; in experiment [7] (read-out: IC50), less than 50%. Also, the IC50 result in experiment [2] is “NI (No Inhibition (less than 50% at 1000 μM))”; in [3] it was “NI (No Inhibition (less than 50% at 1000 μM))”; against β-Glucosidase (Almond) it was “NI (No Inhibition (less than 50% at 1000 μM))”; in experiment [6] it was 241 µM; against Rat intestinal maltase it was “NI (No Inhibition (less than 50% at 1000 μM))”; against β-Mannosidase (Snail), “NI (No Inhibition (less than 50% at 1000 μM))”. Further, the “Inhibition % at 1000 μM” value was determined as 5.3% in [2]; 0.3% in experiment [3]; 17.1% in the experiment on β-Glucosidase (Almond); 13.6% in the experiment on Rat intestinal maltase; 0% in the experiment on β-Mannosidase (Snail).
Regarding `CC(=O)NC[C@H]1N[C@@H](CO)[C@@H](O)[C@@H]1O` [E-10a, 1-N-acetylamino-2,5-imino-1,2,5-trideoxy-D-glucitol hydrochloride], the inhibition at 1000 µM in experiment [1] (setting [8]) was 1.4%; in experiment [1] (read-out: IC50), less than 50%; in experiment [4] (setting [8]) it was 0%; in experiment [4] (read-out: IC50), less than 50%; in [5] (setting [8]) it was 0.36%; in experiment [5] (read-out: IC50) it was less than 50%. In addition, the inhibition at 1000 µM is 15.9% at α-Glucosidase (Rice) (setting [8]), less than 50% at α-Glucosidase (Rice) (read-out: IC50), 5.6% in [7] (setting [8]) and less than 50% in [7] (read-out: IC50). The half-maximal inhibitory concentration (IC50) was 490 µM in experiment [2] (read-out: IC50); 591 µM in [3] (read-out: IC50); “NI (No Inhibition (less than 50% at 1000 μM))” on β-Glucosidase (Almond); 10 µM in experiment [6]; “NI (No Inhibition (less than 50% at 1000 μM))” at Rat intestinal maltase; “NI (No Inhibition (less than 50% at 1000 μM))” at β-Mannosidase (Snail). Further, the figures for the “Inhibition % at 1000 μM” value in the experiment with β-Glucosidase (Almond), with Rat intestinal maltase and in the experiment with β-Mannosidase (Snail) were 37.9%, 12.7% and 25.8%, respectively.
On to `CC(=O)NC[C@@H]1N[C@@H](CO)[C@H](O)[C@H]1O` [A-10, 1-N-acetylamino-2,5-imino-1,2,5-trideoxy-L-mannitol hydrochloride], for which the inhibition at 1000 µM is 0% in experiment [1] (setting [8]); less than 50% in experiment [1] (read-out: IC50); 4.6% in experiment [4] (setting [8]); less than 50% in [4] (read-out: IC50); 0% in [5] (setting [8]); less than 50% in experiment [5] (read-out: IC50). Also, the inhibition at 1000 µM is 4.3% in [7] (setting [8]) and less than 50% in experiment [7] (read-out: IC50). The IC50 result in [2] was “NI (No Inhibition (less than 50% at 1000 μM))”; in experiment [3], “NI (No Inhibition (less than 50% at 1000 μM))”; at β-Glucosidase (Almond), “NI (No Inhibition (less than 50% at 1000 μM))”; in experiment [6], 202 µM; on Rat intestinal maltase (read-out: IC50), 92 µM; on α-Glucosidase (Rice), 568 µM. On β-Mannosidase (Snail), the IC50 entry is recorded as “NI (No Inhibition (less than 50% at 1000 μM))”. Also, the “Inhibition % at 1000 μM” value stood at 13.0% in [2], 12.7% in experiment [3], 16.1% in the experiment with β-Glucosidase (Almond) and 0% in the experiment on β-Mannosidase (Snail).
With `CC(=O)NC[C@H]1N[C@H](CO)[C@H](O)[C@@H]1O` [D-10, 1-N-acetylamino-2,5-imino-1,2,5-trideoxy-D-altritol hydrochloride], the IC50 was 65.3 µM in [1]; 8.8 µM in experiment [2] (read-out: IC50); 10 µM in experiment [3] (read-out: IC50); “NI (No Inhibition (less than 50% at 1000 μM))” on β-Glucosidase (Almond); 380 µM in [5]; 0.12 µM in [6]. In addition, the IC50 result against Rat intestinal maltase is given as “NI (9.24%) (No Inhibition (less than 50% at 1000 μM))”; against β-Mannosidase (Snail), “NI (No Inhibition (less than 50% at 1000 μM))”. In addition, the inhibition at 1000 µM in experiment [4] (setting [8]) was 1.3%; in experiment [4] (read-out: IC50), less than 50%; at α-Glucosidase (Rice) (setting [8]), 26.1%; at α-Glucosidase (Rice) (read-out: IC50), less than 50%; in [7] (setting [8]), 0%; in [7] (read-out: IC50), less than 50%. The “Inhibition % at 1000 μM” value with β-Glucosidase (Almond) was 41.0%; in the experiment with β-Mannosidase (Snail), 0%.
For `CC(=O)NC[C@H]1N[C@H](CO)[C@H](O)[C@H]1O` [F-10b, 1-N-acetylamino-2,5-imino-1,2,5-trideoxy-D-iditol hydrochloride], the inhibition at 1000 µM in [1] (setting [8]) was 2.3%; in experiment [1] (read-out: IC50), less than 50%; in [4] (setting [8]), 0%; in [4] (read-out: IC50), less than 50%; in experiment [5] (setting [8]), 0%; in [5] (read-out: IC50) it was less than 50%. Besides, the inhibition at 1000 µM on α-Glucosidase (Rice) (setting [8]) was 0%; on α-Glucosidase (Rice) (read-out: IC50), less than 50%; in experiment [7] (setting [8]), 0%; in [7] (read-out: IC50), less than 50%. In addition, the IC50 result in experiment [2] is “NI (No Inhibition (less than 50% at 1000 μM))”; in [3], “NI (No Inhibition (less than 50% at 1000 μM))”; against β-Glucosidase (Almond), “NI (No Inhibition (less than 50% at 1000 μM))”; in [6], 98 µM; against Rat intestinal maltase, “NI (No Inhibition (less than 50% at 1000 μM))”; against β-Mannosidase (Snail), “NI (No Inhibition (less than 50% at 1000 μM))”. Further, the “Inhibition % at 1000 μM” value was 36.1% in experiment [2]; 16.6% in experiment [3]; 19.8% with β-Glucosidase (Almond); 12.7% with Rat intestinal maltase; 0% in the experiment on β-Mannosidase (Snail).

Values taken from article PMC7180638, “Synthesis of Pyrrolidine Monocyclic Analogues of Pochonicine and Its Stereoisomers: Pursuit of Simplified Structures and Potent β-N-Acetylhexosaminidase Inhibition” (Molecules, 2020).
